For seven molecules, IC50 and MIC results are on record in ChEMBL document CHEMBL3124777, “Synthesis and biological evaluation of thiazoline derivatives as new antimicrobial and anticancer agents” (Eur J Med Chem, 2014).

One experiment concerns NIH3T3. Description: Cytotoxicity against mouse NIH/3T3 cells after 24 hrs by MTT assay. In kind it is cell-based. Particulars: NIH3T3, 24 h. On the technique in general: Tetrazolium dyes change colour on reduction, which living cells bring about.
The next experiment relates to Pseudomonas aeruginosa. Description: Antimicrobial activity against Pseudomonas aeruginosa […] after 18 to 24 hrs by microbroth dilution method. It counts as functional. For orientation: Dilution methods test growth across graded concentrations, often in twofold steps.
In a further experiment the test system is Listeria monocytogenes. The experiment can be described thus: Antimicrobial activity against Listeria monocytogenes ATCC 7644 after 18 to 24 hrs by microbroth dilution method. In kind it is functional.
Another experiment concerns Trichoderma harzianum. The experiment can be described thus: Antimicrobial activity against Trichoderma harzianum NRRL 20565 after 48 to 72 hrs by microbroth dilution method. It counts as functional.
The next experiment has as its system Fusarium verticillioides. Description: Antimicrobial activity against Fusarium moniliforme NRRL 1866 after 48 to 72 hrs by microbroth dilution method. In kind it is functional.
The subject of another experiment is Aspergillus parasiticus. Description: Antimicrobial activity against Aspergillus parasiticus NRRL 465 after 48 to 72 hrs by microbroth dilution method. In kind it is functional.
In another experiment the test system is Escherichia coli. The experiment can be described thus: Antimicrobial activity against Escherichia coli ATCC 25922 after 18 to 24 hrs by microbroth dilution method. It counts as functional.
A further experiment deals with Penicillium chrysogenum. The experiment can be described thus: Antimicrobial activity against Penicillium chrysogenum NRRL 1951 after 48 to 72 hrs by microbroth dilution method. In kind it is functional.
The subject of the next experiment is Micrococcus luteus. The experiment can be described thus: Antimicrobial activity against Micrococcus luteus NRLL B-4375 after 18 to 24 hrs by microbroth dilution method. In kind it is functional.
For a further experiment, the system named is Aspergillus ochraceus. The experiment can be described thus: Antimicrobial activity against Aspergillus ochraceus NRRL 3174 after 48 to 72 hrs by microbroth dilution method. In kind it is functional.
A further experiment relates to Candida albicans. The experiment can be described thus: Antimicrobial activity against Candida albicans ATCC 22019 after 18 to 24 hrs by microbroth dilution method. In kind it is functional.
In the next experiment the test system is Fusarium culmorum. The experiment can be described thus: Antimicrobial activity against wild type Fusarium culmorum after 48 to 72 hrs by microbroth dilution method. In kind it is functional.
For the next experiment, the system named is Fusarium solani. Description: Antimicrobial activity against Fusarium solani NRRL 13414 after 48 to 72 hrs by microbroth dilution method. In kind it is functional.
In the next experiment the test system is Bacillus subtilis. The experiment can be described thus: Antimicrobial activity against Bacillus subtilis NRS-744 after 18 to 24 hrs by microbroth dilution method. In kind it is functional.
Another experiment has as its system Staphylococcus aureus. The experiment can be described thus: Antimicrobial activity against Staphylococcus aureus NRRL B-767 after 18 to 24 hrs by microbroth dilution method. It counts as functional.

Molecules are shown by their SMILES. Values after ≈ are worked out from the molar mass of the structure shown.

In general, IC50 refers to the concentration that inhibits the measured activity by half. As usually defined, the MIC is the lowest concentration found to suppress growth. A high value points to a less susceptible organism. `Cn1cnnc1SCC(=O)N/N=c1/scc(-c2ccc(F)cc2)n1-c1ccccc1`: the IC50 in the experiment on NIH3T3 was 65 µg/mL (≈ 148 µM). In addition, the MIC in the experiment with Pseudomonas aeruginosa came to 125 µg/mL (≈ 284 µM); in the experiment on Listeria monocytogenes, 125 µg/mL (≈ 284 µM); in the experiment on Trichoderma harzianum it was 250 µg/mL (≈ 567 µM); in the experiment on Fusarium verticillioides, 250 µg/mL (≈ 567 µM); against Aspergillus parasiticus it was 250 µg/mL (≈ 567 µM); against Escherichia coli it was 125 µg/mL (≈ 284 µM). Also, the MIC against Penicillium chrysogenum, with Micrococcus luteus, against Aspergillus ochraceus, against Candida albicans, with Fusarium culmorum and in the experiment on Fusarium solani was 250 µg/mL (≈ 567 µM) throughout. Moreover, the minimum inhibitory concentration (MIC) in the experiment with Bacillus subtilis was 250 µg/mL (≈ 567 µM); against Staphylococcus aureus it was 125 µg/mL (≈ 284 µM).

In turn, `Cc1nnc(SCC(=O)N/N=c2/scc(-c3ccc([N+](=O)[O-])cc3)n2-c2ccccc2)s1` came in with an IC50 with NIH3T3 of 177 µg/mL (≈ 365 µM). In addition, the MIC against Pseudomonas aeruginosa, in the experiment with Listeria monocytogenes, against Trichoderma harzianum, against Fusarium verticillioides, in the experiment on Aspergillus parasiticus and against Escherichia coli was 250 µg/mL (≈ 516 µM) each time. In addition, the MIC against Penicillium chrysogenum, with Micrococcus luteus, in the experiment with Aspergillus ochraceus, in the experiment on Candida albicans, in the experiment with Fusarium culmorum and against Fusarium solani was 250 µg/mL (≈ 516 µM) each time. The minimum inhibitory concentration (MIC) is 250 µg/mL (≈ 516 µM) in the experiment with Bacillus subtilis and 500 µg/mL (≈ 1030 µM) against Staphylococcus aureus.

Consider `COc1ccc(-c2cs/c(=N/NC(=O)CSc3nncn3C)n2-c2ccccc2)cc1`, for which the 50% inhibitory concentration (IC50) with NIH3T3 is 167 µg/mL (≈ 368 µM). For the same molecule, the MIC with Pseudomonas aeruginosa, in the experiment with Listeria monocytogenes, with Trichoderma harzianum, against Fusarium verticillioides, with Aspergillus parasiticus and with Escherichia coli was 250 µg/mL (≈ 552 µM) in each case. Also, the minimum inhibitory concentration (MIC) against Penicillium chrysogenum, in the experiment on Micrococcus luteus, with Aspergillus ochraceus, in the experiment on Candida albicans, in the experiment with Fusarium culmorum and against Fusarium solani was 250 µg/mL (≈ 552 µM) throughout. Further, the minimum inhibitory concentration (MIC) in the experiment with Bacillus subtilis and in the experiment with Staphylococcus aureus was 250 µg/mL (≈ 552 µM) throughout.

Regarding `O=C(CSc1ncccn1)N/N=c1/scc(-c2ccccc2)n1-c1ccccc1`, half-maximal inhibition in the experiment with NIH3T3 (IC50) required 107 µg/mL (≈ 254 µM). Further, the minimal inhibitory concentration (MIC) in the experiment on Pseudomonas aeruginosa, in the experiment with Listeria monocytogenes, with Trichoderma harzianum, against Fusarium verticillioides, with Aspergillus parasiticus and in the experiment on Escherichia coli was 250 µg/mL (≈ 596 µM) in each case. The MIC against Penicillium chrysogenum, with Micrococcus luteus, with Aspergillus ochraceus, in the experiment on Candida albicans, against Fusarium culmorum and with Fusarium solani was 250 µg/mL (≈ 596 µM) throughout. Besides, the MIC against Bacillus subtilis is 500 µg/mL (≈ 1190 µM); in the experiment with Staphylococcus aureus, 250 µg/mL (≈ 596 µM).

On to `N#Cc1ccc(-c2cs/c(=N/NC(=O)CSc3ncccn3)n2-c2ccccc2)cc1`, for which, in the experiment with NIH3T3, the 50% inhibitory concentration (IC50) was below 3.9 µg/mL. Further, the MIC against Pseudomonas aeruginosa was found to be 125 µg/mL (≈ 281 µM); against Listeria monocytogenes, 250 µg/mL (≈ 562 µM); against Trichoderma harzianum it was 250 µg/mL (≈ 562 µM); against Fusarium verticillioides it was 250 µg/mL (≈ 562 µM); against Aspergillus parasiticus it was 250 µg/mL (≈ 562 µM); with Escherichia coli it was 250 µg/mL (≈ 562 µM). Moreover, the MIC against Penicillium chrysogenum, against Micrococcus luteus, in the experiment with Aspergillus ochraceus, against Candida albicans, with Fusarium culmorum and in the experiment with Fusarium solani was 250 µg/mL (≈ 562 µM) in each case. The MIC with Bacillus subtilis and in the experiment with Staphylococcus aureus was 250 µg/mL (≈ 562 µM) in each case.

As to `CN[C@@H]1[C@H](O[C@H]2[C@H](O[C@H]3[C@H](O)[C@@H](O)[C@H](N=C(N)N)[C@@H](O)[C@@H]3N=C(N)N)O[C@@H](C)[C@]2(O)C=O)O[C@@H](CO)[C@H](O)[C@H]1O` [STREPTOMYCIN], the minimal inhibitory concentration (MIC) against Pseudomonas aeruginosa worked out at 125 µg/mL (≈ 215 µM); against Listeria monocytogenes, 7.81 µg/mL (≈ 13.4 µM); against Escherichia coli it was 31.2 µg/mL (≈ 53.7 µM); against Micrococcus luteus it was 15.6 µg/mL (≈ 26.9 µM); in the experiment with Bacillus subtilis it was 15.6 µg/mL (≈ 26.9 µM); against Staphylococcus aureus, 31.2 µg/mL (≈ 53.7 µM).

`CC(=O)N1CCN(c2ccc(OCC3COC(Cn4ccnc4)(c4ccc(Cl)cc4Cl)O3)cc2)CC1` (centres undefined) [KETOCONAZOLE]: the minimal inhibitory concentration (MIC) in the experiment on Trichoderma harzianum was 250 µg/mL (≈ 470 µM); with Fusarium verticillioides it was 500 µg/mL (≈ 941 µM); against Aspergillus parasiticus, 125 µg/mL (≈ 235 µM); with Penicillium chrysogenum it was 7.8 µg/mL (≈ 14.7 µM); in the experiment with Aspergillus ochraceus it was 250 µg/mL (≈ 470 µM); in the experiment with Candida albicans it was 250 µg/mL (≈ 470 µM). Besides, the MIC against Fusarium culmorum and in the experiment on Fusarium solani was 500 µg/mL (≈ 941 µM) in each case.
